Results from patent US5831055A, “DNA encoding a novel kidney ATP-dependent potassium channels” (Pharmacia & Upjohn Company, priority 1996, dated 1998).
Values belong to the molecule of their own block, whether it stands above or below them.

How the values were obtained:
KIRK 2 channel = target: T1, KIRK 2 channel (Homo sapiens, UniProt P78508); experiment: Two-microelectrode voltage-clamp of Xenopus oocytes injected with KIRK 2 cRNA; type: cell-based; conditions: for inhibition of KIRK 2 current: Xenopus oocytes expressing KIRK 2, Ba^2+ applied at 0.03 μM to 10 mM (n=8), Cs^+ n=6, data not shown
T1 construct: primers that flank the open-reading frame of KIRK-2 were used to PCR amplify this region of the genomic clone; expressed in transfected cells; host or cells: Xenopus laevis oocytes injected with polyadenylated KIRK 2 cRNA (from pSPORT/KIRK-2)
T1 sequence (P78508 1-379): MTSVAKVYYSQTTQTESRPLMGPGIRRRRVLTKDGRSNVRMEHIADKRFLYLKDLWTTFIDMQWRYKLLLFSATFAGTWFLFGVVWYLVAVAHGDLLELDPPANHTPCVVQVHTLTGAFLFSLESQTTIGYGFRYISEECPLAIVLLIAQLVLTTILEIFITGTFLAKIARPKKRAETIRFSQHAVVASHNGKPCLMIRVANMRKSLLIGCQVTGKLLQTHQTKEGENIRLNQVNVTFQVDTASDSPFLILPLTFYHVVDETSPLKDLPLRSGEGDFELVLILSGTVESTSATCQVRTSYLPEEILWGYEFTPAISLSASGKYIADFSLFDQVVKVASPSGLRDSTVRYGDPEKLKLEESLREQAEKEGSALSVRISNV
Description: Oocytes were collected under tricaine (3-aminobenzoic acid ethyl ester, 0.17%; Sigma, St. Louis, Mo.) and cold-induced anesthesia from adult African clawed frogs, Xenopus laevis (Nasco, Ft. Atkinson, Wis.), and defolliculated by blunt dissection in Ca^2+ free ND-96 following 40 minutes incubation in 2 mg/ml collagenase (Type II; Sigma, St. Louis, Mo.). ND-96 consisted of 96 mM NaCl, 2 mM KCl, 1 mM MgCl2, 0.3 mM CaCl2, 5 mM HEPES, pH 7.6.The following day, a glass injection pipette manually broken to ~15 μm tip diameter was used to inject oocytes with […] of polyadenylated cRNA dissolved in water at 15, 30 or 100 ng/μl resulting in injection of 0.6, 1.2, or 4 ng of cRNA. Prior to recordings, oocytes were maintained 2-7 days at 20° C. in ND-96 supplemented with gentamycin ([…]; Bio-Whittaker, Walkersville, Md.) and sodium-pyruvate (2.5 mM; Sigma).
Electrophysiological recordings were conducted at room temperature. Oocyte resting membrane potential was measured in ND-96 using 30-80 M.OMEGA. glass microelectrodes filled with 3M KCl For two-microelectrode voltage-clamp recordings, the voltage-measuring pipette had resistances of 1.5 to 2.0 M.OMEGA., while the current-injection pipette had resistances of 0.7-0.9 M.OMEGA.; both pipettes were filled with 3M KCl. All voltage-clamp recordings were conducted in bath solutions containing 1 mM MgCl2, 0.3 mM CaCl2, and 5 mM HEPES. For experiments conducted in 50 mM K^+, the solution contained 50 mM KCl and 50 mM NaCl. For lower potassium concentrations, this solution was mixed with an identical solution in which choline was substituted for potassium. Pairs of solutions at pH 5.4 and 8.4, containing 50 mM KCl and either 50 mM potassium-acetate or 50 mM potassium-hydrogen phthalate (biphthalate; Sigma, St. Louis, Mo.) were mixed to vary pH.
Two-microelectrode, voltage-clamp recordings were conducted using the GeneClamp 500 (Axon Instruments, La Jolla, Calif.) interfaced with a 486 Computer running the PCLAMP 6.0 (Axon Instruments, La Jolla, Calif.) suite of programs. Currents were filtered at 2 kHz and sampled every 100 μs. Current amplitude was measured during the last 4 ms of a 400 ms test pulse. Data were analyzed and plotted using PCLAMP 6.0 and SIGMA PLOT 5.0 (Jandel Scientific, San Rafael, Calif.). Statistical significance was determined by the Student's T-test.

Molecule: [Ba+2] [Ba^2+]
fraction of the transmembrane electric field sensed by the binding site (Woodhull equation fit of Ki versus membrane potential) (KIRK 2 channel; Ki values at holding potentials -120, -80 and -40 mV): 46% | inhibition of KIRK 2 current (KIRK 2 channel): reversible, concentrationdependent inhibition | Hill coefficient of logistic fit of concentration-dependence of KIRK 2 inhibition (KIRK 2 channel; three holding potentials (-120, -80, -40 mV), n=8): 2

Molecule: [Cs+] [Cs^+]
inhibition of KIRK 2 current (KIRK 2 channel): reversible and voltage-dependent | effectiveness of block of KIRK 2 compared with Ba^2+ (KIRK 2 channel; apparent only at the most negative potentials tested, n=6, data not shown): far less effective than block by Ba^2+

whole-cell current at a holding potential of -160 mV in Xenopus oocytes, two-microelectrode voltage clamp (KIRK 1 (ROMK channel)): 54%
Molecule: KIRK-3 (human kidney inward rectifier K channel 3)
